Experimental data taken from BindingDB's records for doi:10.1021/jm00172a035 (Wyeth-Ayerst Research, 1990).
pIC50: −log10 of the molar value. Where a name gives a salt, the structure may show the parent alone.

Molecular target: Sodium-dependent serotonin transporter (Rattus norvegicus) (UniProt P31652)
Assay: Inhibition of binding of [3H]imipramine to imipramine receptor in rat brain

Sodium-dependent serotonin transporter (Rattus norvegicus), sequence (P31652 whole entry, looked up): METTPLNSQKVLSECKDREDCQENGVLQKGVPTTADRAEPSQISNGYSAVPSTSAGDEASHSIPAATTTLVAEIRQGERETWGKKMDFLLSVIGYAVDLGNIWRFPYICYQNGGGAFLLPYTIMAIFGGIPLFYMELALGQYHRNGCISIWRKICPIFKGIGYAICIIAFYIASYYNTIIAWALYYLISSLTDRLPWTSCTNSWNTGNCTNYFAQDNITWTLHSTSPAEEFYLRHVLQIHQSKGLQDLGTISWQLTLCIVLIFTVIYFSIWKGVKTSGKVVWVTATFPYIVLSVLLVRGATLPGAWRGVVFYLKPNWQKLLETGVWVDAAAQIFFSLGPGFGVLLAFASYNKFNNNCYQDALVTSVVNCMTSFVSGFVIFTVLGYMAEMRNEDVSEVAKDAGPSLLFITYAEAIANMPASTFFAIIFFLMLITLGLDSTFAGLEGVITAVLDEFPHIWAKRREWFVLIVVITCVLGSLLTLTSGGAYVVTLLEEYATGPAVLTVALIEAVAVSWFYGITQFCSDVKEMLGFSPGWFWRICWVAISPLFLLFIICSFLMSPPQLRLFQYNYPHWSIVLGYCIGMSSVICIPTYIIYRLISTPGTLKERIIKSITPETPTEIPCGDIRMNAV

| Compound | pIC50 |
| --- | --- |
| CN(C)CC(c1ccc(Br)cc1)C1(O)CCCCC1 (stereo not given) | 7.21 |
| COc1cccc(C(CN(C)C)C2(O)CCCC2)c1 (stereo not given) | 7.02 |
| CN(C)CC(c1ccc(Br)cc1)C1(O)CCC1 (stereo not given) | 6.36 |
| COc1ccc(C(CN(C)C)C2(O)CCCCCCC2)cc1 (stereo not given) | < 5.00 |
| Cc1ccc(C(CN(C)C)C2(O)CCCCC2)cc1 (stereo not given) | 6.69 |
| CN(C)CC(c1ccccc1Br)C1(O)CCCCC1 (stereo not given) | 6.59 |
| COc1ccc(C(CN(C)C)C2(O)CCCC2)cc1 (stereo not given) | 6.90 |
| COc1ccc(C(CN)C2(O)CCCCC2)cc1 (stereo not given) | 6.05 |
| CN(C)CC(c1cccc(Br)c1)C1(O)CCCCC1 (stereo not given) | 7.28 |
| CN(C)CC(c1ccccc1Cl)C1(O)CCCCC1 (stereo not given) [1-(1-(2-chlorophenyl)-2-(dimethylamino)ethyl)cyclohexanol] | 6.28 |
| CN(C)CC(c1ccccc1O)C1(O)CCCCC1 (stereo not given) | < 5.00 |
| COc1ccc(C(CN2CCCCC2)C2(O)CCCCC2)cc1 (stereo not given) | < 5.00 |
| COc1cccc(C(CN(C)C)C2(O)CCCCC2)c1 (stereo not given) [1-(2-(dimethylamino)-1-(3-methoxyphenyl)ethyl)cyclohexanol] | 6.82 |
| CN(C)CC(c1ccc(N)cc1)C1(O)CCCCC1 (stereo not given) | < 5.00 |
| CN(C)CC(c1ccc(Cl)cc1)C1(O)CCCCC1 (stereo not given) [1-[1-(4-Chloro-phenyl)-2-dimethylamino-ethyl]-cyclohexanol (HCl)] | 7.00 |
| CN(C)CC(c1cccc(Cl)c1)C1(O)CCCCC1 (stereo not given) | 6.89 |
| CN(C)CC(c1ccc([N+](=O)[O-])cc1)C1(O)CCCCC1 (stereo not given) | 6.60 |
| COc1ccc(C(CN(C)C)C2(O)CCCCCC2)cc1 (stereo not given) | 6.52 |
| CN(C)CC(c1ccc(Cl)c(Cl)c1)C1(O)CCCCC1 (stereo not given) | 7.43 |
| COc1ccc(C(CN2CCOCC2)C2(O)CCCCC2)cc1 (stereo not given) | < 5.00 |
| CNCC(c1ccc(OC)cc1)C1(O)CCCCC1 (stereo not given) [N-Desmethylvenlafaxine] | 6.52 |
| COc1ccc(C(CN(C)C)C2(O)CCCCC2)cc1Br (stereo not given) | 6.72 |
| COc1ccc(C(CN2CCCC2)C2(O)CCCCC2)cc1 (stereo not given) | < 5.00 |
| CN(C)CC(c1ccc(C(F)(F)F)cc1)C1(O)CCCCC1 (stereo not given) | 7.06 |
| COc1ccc(C(CN(C)C)C2(O)CCCCC2)cc1OC (stereo not given) | 6.15 |
